Source: US11542233B2, “Compounds, compositions and methods of use” (Aquinnah Pharmaceuticals, Inc., priority 2016, dated 2023)

These compounds were tested on TDP-43 aggregation in PC12 cells stably expressing GFP-tagged mutant TDP-43 (TDP-43^Q33IK::eGFP) (assay: In vitro efficacy assay: inhibition of TDP-43 inclusions, concentration-response, fluorescence microscopy). Conditions: Rattus norvegicus, PC-12, PC12 cells, 1 hour pre-treatment, 15 μM sodium arsenite for 23 hours, 10-point dose response curve.
Assay type: cell-based
Method in brief: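 PC12 cells stably expressing TDP-43^Q33IK::eGFP pre-treated 1 h with compound, then stressed with 15 μM sodium arsenite for 23 h. Fluorescence microscopy gave the fraction of GFP-positive cells bearing aggregates; IC50 from concentration-response, reported in bins: A <100 nM, B 100–500 nM, C 500 nM–2 μM, D >2 μM.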

Row | Compound | IC50 [nM]
1 | CCN(C(=O)c1cc2ccccc2[nH]1)[C@H]1CCC[C@@H](NCc2ccncc2)C1 [Compound 126] | 100 to 500
2 | CCN(C(=O)c1cc2ncccc2[nH]1)[C@H]1CCC[C@@H](NCc2cc(C)no2)C1 [Compound 437] | < 100
3 | CCN(C(=O)c1cc2ccccc2[nH]1)[C@H]1CCC[C@@H](NC(=O)c2ccccc2)C1 [Compound 200, N-((1S,3R)-3-benzamidocyclohexyl)-N-ethyl-1H-indole-2-carboxamide] | > 2000
4 | CCN(C(=O)c1cc2ccccc2[nH]1)[C@H]1CCC[C@H](NCc2cccc(F)c2)C1 [Compound 107, N-ethyl-N-((1S,3S)-3-((3-fluorobenzyl)amino)cyclohexyl)-1H-indole-2-carboxamide] | 500 to 2000
5 | CCN(C(=O)c1cc2ncccc2[nH]1)[C@H]1CCC[C@@H](NCc2ccc3ocnc3c2)C1 [Compound 443] | < 100
6 | CCN(C(=O)c1cc2ncccc2[nH]1)[C@H]1CCC[C@@H](NCc2nnc(C)s2)C1 [Compound 439] | > 2000
7 | CCN(C(=O)c1cc2ccccc2[nH]1)[C@H]1CCC[C@@H](NCCC2CC2)C1 [Compound 117] | < 100
8 | CCN(C(=O)c1cc2ncccc2[nH]1)[C@H]1CCC[C@H](NC(C)(C)c2ccc(OC)cc2)C1 [Compound 409] | 500 to 2000
9 | CCN(C(=O)c1cc2ncccc2[nH]1)[C@H]1CCC[C@@H](NCc2ccnc(OC)c2)C1 [Compound 440] | < 100
10 | CCN(C(=O)c1cc2ccccc2[nH]1)[C@H]1CCC[C@@H](N[C@@H](c2ccccc2)C(F)(F)F)C1 [Compound 415] | > 2000
11 | CCN(C(=O)c1cc2ccccc2[nH]1)[C@H]1CCC[C@@H](NCC2CCOCC2)C1 [Compound 118] | 100 to 500
12 | CCN(C(=O)c1cc2ccccc2[nH]1)[C@H]1CCC[C@@H](NCc2cccnc2)C1 [Compound 108] | 100 to 500
13 | CCN(C(=O)c1cc2ccccc2[nH]1)[C@H]1CCC[C@@H](NCc2ncccn2)C1 [Compound 136] | 100 to 500
14 | CCN(C(=O)c1cc2ccccc2[nH]1)[C@H]1CCC[C@@H](N[C@H]2CCc3ccccc32)C1 [Compound 120] | 500 to 2000
15 | CCN(C(=O)c1cc2ccccc2[nH]1)C1CCC[C@H](NCc2ccc(F)cc2)C1 (stereo partly shown) [Compound 110] | 100 to 500
16 | CCN(C(=O)c1cc2ncccc2[nH]1)[C@H]1CCC[C@@H](NCc2ccc3nsnc3c2)C1 [Compound 442] | < 100
17 | CCN(C(=O)c1cc2ccccc2[nH]1)[C@H]1CCC[C@@H](NCc2ccccc2)C1 [Compound 100, N-((1S,3R)-3-(benzylamino)cyclohexyl)-N-ethyl-1H-indole-2-carboxamide] | < 100
18 | CCN(C(=O)c1cc2ccccc2[nH]1)[C@H]1CCC[C@@H](NCc2cccc(S(C)(=O)=O)c2)C1 [Compound 431] | < 100
19 | CCN(C(=O)c1cc2ccccc2[nH]1)[C@H]1CCC[C@@H](NCc2ccnc(OC)c2)C1 [Compound 457] | < 100
20 | CCN(C(=O)c1cc2ccccc2[nH]1)[C@H]1CCC[C@@H](NCc2cccc(OC(F)(F)F)c2)C1 [Compound 430] | < 100
21 | CCN(C(=O)c1cc2ncccc2[nH]1)[C@H]1CCC[C@@H](NCc2ccccc2)C1 [Compound 151] | < 100

Next, values leading:

Row | IC50 [nM] | Compound
22 | < 100 | CCN(C(=O)c1cc2ccccc2[nH]1)[C@H]1CCC[C@@H](NCc2oc3ccccc3c2C#N)C1 [Compound 496]
23 | < 100 | CCN(C(=O)c1nc2ccccc2[nH]1)[C@H]1CCC[C@@H](NCc2ccc3nc(C)oc3c2)C1 [Compound 530, N-ethyl-N-((1S,3R)-3-(((2-methylbenzo[d]oxazol-6-yl)methyl)amino)cyclohexyl)-1H-benzo[d]imidazole-2-carboxamide]
24 | 100 to 500 | CCN(C(=O)c1cc2cc(S(C)(=O)=O)ccc2[nH]1)[C@H]1CCC[C@@H](NCc2ccccc2)C1 [Compound 546]
25 | < 100 | CCN(C(=O)c1nc2cc(F)ccc2[nH]1)[C@H]1CCC[C@@H](NCc2ccccc2)C1 [Compound 483]
26 | 100 to 500 | CCN(C(=O)c1cc2c([nH]1)CCCO2)[C@H]1CCC[C@@H](NCc2ccccc2)C1 [Compound 511, N-((1S,3R)-3-(benzylamino)cyclohexyl)-N-ethyl-1,5,6,7-tetrahydropyrano[3,2-b]pyrrole-2-carboxamide]
27 | < 100 | [2H]C([2H])(N[C@@H]1CCC[C@H](N(CC)C(=O)c2nc3ccccc3[nH]2)C1)c1ccccc1 [Compound 522, N-ethyl-N-((1S,3R)-3-((phenylmethyl-d2)amino)cyclohexyl)-1H-benzo[d]imidazole-2-carboxamide]
28 | < 100 | CCN(C(=O)c1cc2ccccc2[nH]1)[C@H]1CCC[C@@H](NCc2ccc3ncoc3c2)C1 [Compound 464, N-((1S,3R)-3-((benzo[d]oxazol-6-ylmethyl)amino)cyclohexyl)-N-ethyl-1H-indole-2-carboxamide]
29 | < 100 | CCN(C(=O)c1nc2ccccc2[nH]1)[C@H]1CCC[C@@H](NCc2ccc3ncoc3c2)C1 [Compound 487, N-((1S,3R)-3-((benzo[d]oxazol-6-ylmethyl)amino)cyclohexyl)-N-ethyl-1H-benzo[d]imidazole-2-carboxamide]
30 | > 2000 | CCN(C(=O)c1cc2ccccc2[nH]1)C1CCC[C@H](N[C@H]2CCc3ccccc32)C1 (stereo partly shown) [Compound 509]
31 | 500 to 2000 | C#CCOc1ccc(CN[C@@H]2CCC[C@H](N(CC)C(=O)c3nc4cc(N)ccc4[nH]3)C2)cc1 [Compound 562, 5-amino-N-ethyl-N-((1S,3R)-3-((4-(prop-2-yn-1-yloxy)benzyl)amino)cyclohexyl)-1H-benzo[d]imidazole-2-carboxamide]
32 | < 100 | CCN(C(=O)c1nc2cc(F)ccc2[nH]1)[C@H]1CCC[C@@H](NCc2oc3ccccc3c2C)C1 [Compound 524]
33 | 500 to 2000 | CCN(C(=O)c1cc2ncccc2[nH]1)[C@H]1CCC[C@@H](NCc2nnc(C)o2)C1 [Compound 468, N-ethyl-N-((1S,3R)-3-(((5-methyl-1,3,4-oxadiazol-2-yl)methyl)amino)cyclohexyl)-1H-pyrrolo[3,2-b]pyridine-2-carboxamide]
34 | < 100 | [2H]C([2H])(N[C@@H]1CCC[C@H](N(CC)C(=O)c2cc3ccccc3[nH]2)C1)c1ccccc1 [Compound 521, N-ethyl-N-((1S,3R)-3-((phenylmethyl-d2)amino)cyclohexyl)-1H-indole-2-carboxamide]
35 | < 100 | CCN(C(=O)c1nc2ccccc2[nH]1)[C@H]1CCC[C@@H](NCc2cn3ccccc3n2)C1 [Compound 494, N-ethyl-N-((1S,3R)-3-((imidazo[1,2-a]pyridin-2-ylmethyl)amino)cyclohexyl)-1H-benzo[d]imidazole-2-carboxamide]
36 | < 100 | CCN(C(=O)c1nc2ccccc2[nH]1)[C@H]1CCC[C@@H](NCc2oc3ccccc3c2C#N)C1 [Compound 497]
37 | < 100 | CCN(C(=O)c1nc2cc(F)ccc2[nH]1)[C@H]1CCC[C@@H](NCc2oc3ccccc3c2C#N)C1 [compound 510]
38 | < 100 | CCN(C(=O)c1cc2cc(C#N)ccc2[nH]1)[C@H]1CCC[C@@H](NCc2cccc(F)c2)C1 [Compound 534]
39 | < 100 | CCN(C(=O)c1nc2ccccc2[nH]1)[C@H]1CCC[C@@H](NCc2cc(C3CC3)no2)C1 [Compound 495, N-((1S,3R)-3-(((3-cyclopropylisoxazol-5-yl)methyl)amino)cyclohexyl)-N-ethyl-1H-benzo[d]imidazole-2-carboxamide]
40 | 500 to 2000 | CCN(C(=O)c1cc2ccccc2[nH]1)[C@H]1CCC[C@@H](NCc2cnn(C)c2)C1 [Compound 461]
